B1: pegfilgrastim (protein, chains of the INN, looked up)
chain: TPLGPASSLPQSFLLKCLEQVRKIQGDGAALQEKLCATYKLCHPEELVLLGHSLGIPWAPLSSCPSQALQLAGCLSQLHSGLFLYQGLLQALEGISPELGPTLDTLQLDVADFATTIWQQMEELGMAPALQPTQGAMPAFASAFQRRAGGVLVASHLQSFLEVSYRVLRHLAQP
modifications: PEG
notes: granulocyte-colony stimulating factor (G-CSF) drug used as comparator

Key:
[1] = system: thrombocytopenia in patients receiving docetaxel; assay: Phase 2/3 randomized study of plinabulin versus pegfilgrastim in patients with solid tumors receiving docetaxel myelosuppressive chemotherapy (platelet count, thrombocytopenia); type: in vivo, human; conditions: patients on docetaxel 75 mg/m^2, preliminary; for change of platelet count (percent) from day 1 to day 15: pegfilgrastim 6 mg vs plinabulin 20 mg/m^2, FIG. 2; for development of thrombocytopenia (percentage of patients at each grade): plinabulin 20 mg/m^2 vs pegfilgrastim 6 mg, FIG. 5
Procedure: The effects of plinabulin on the thrombocytopenia is studied in comparison to pegfilgrastim. A phase 2/3, multicenter, randomized, double blind study is performed with plinabulin versus pegfilgrastim in patients with solid tumors receiving docetaxel myelosuppressive chemotherapy is evaluated. The patients are on study for approximately 5 months, including screening, on treatment, and follow-up. Study design: This is a multicenter, randomized study with an open label phase 2 portion and a double blind phase 3 portion. Approximately 190 patients are enrolled in this study. All patients receive docetaxel at a dose of 75 mg/m^2. In Phase 2, only patients with advanced or metastatic NSCLC after failing platinum-based therapy are enrolled. In Phase 3, patients with one of the following diagnosis are enrolled: advanced or metastatic breast cancer, who have failed<5 prior lines of chemotherapy; advanced or metastatic NSCLC who have previously received platinum-based therapy and have either disease progression, are intolerant of platinum-based therapy or, in the opinion of the investigator, would benefit from docetaxel chemotherapy; or hormone refractory (androgen independent) metastatic prostate cancer. The eligibility of all patients will be determined during a 28-day screening period. Phase 2 (Open Label): Approximately 40 patients with advanced or metastatic NSCLC are enrolled. Patients are randomly assigned with approximately 10 patients enrolled in each arm, with the arm designation and planned intervention as follows: Arm 1: Docetaxel (75 mg/m^2)+pegfilgrastim (6 mg) Arm 2: Docetaxel (75 mg/m^2)+plinabulin (20 mg/m^2) Arm 3: Docetaxel (75 mg/m^2)+plinabulin (10 mg/m^2) Arm 4: Docetaxel (75 mg/m^2)+plinabulin (5 mg/m^2) Once the study is temporarily closed to enrollment in phase 2, a PK/PD analysis is performed to determine the RP3D. The PK/PD analysis is done by an independent party at the time 40 patients in Phase 2 have completed at least Cycle 1. Treatments Administered: Both Phase 2 and Phase 3, Cycles 1 to 4, consist of docetaxel 75 mg/m^2 administered by intravenous (IV) infusion on Day 1 over 60 minutes (±5 minutes) every 21 days. In the phase 2 portion, on Day 1 of each cycle, 1.5 hours (±10 minutes) after the start time of docetaxel infusion (i.e., approximately 30 minutes after the end of docetaxel infusion), patients assigned to a plinabulin arm (arms 2-4) get a single intravenous infusion of plinabulin at their assigned dose over 30 minutes (±5 minutes). Thus, the wait time between end of docetaxel infusion and start of the plinabulin infusion is approximately 30 minutes. On Day 2 of each cycle, ≥24 hours after completing chemotherapy, patients assigned to pegfilgrastim (arm 1) receive a single dose of pegfilgrastim (6 mg) (subcutaneous injection). Laboratory test results (hematology and serum chemistry) are collected via a central laboratory. Safety laboratory tests are required prior to treatment on Day 1 of each cycle and can be collected by a local laboratory; however, all other scheduled blood samples as per the schedule assessments and procedure table must also be obtained for central laboratory assessment. Urinalysis is performed at screening only. CD34+ counts are established through a fluorescence-activated cell sorting (FACS) method. Duration of Treatment: Patients received treatment with study drug for up to 4 cycles in this study, a treatment cycle is 21 days; thereafter, patients may continue receiving docetaxel and pegfilgrastim at the Investigator's discretion. After completion of 4 cycles, patients completed a safety follow-up visit 30 days (±2 days) after the last dose of study drug. If, in the opinion of the investigator, the patient would benefit from more than 4 cycles of docetaxel and open label pegfilgrastim, then the fifth cycle would not start until completion of the safety follow-up visit (in this instance, the safety follow-up visit will be Cycle 4 Day 21).

[2] = system: gemcitabine-induced thrombocytopenia; assay: Effects of plinabulin on hematology parameters (platelet counts) following gemcitabine administration in the rat; type: in vivo
Procedure: The effects of plinabulin on the hematology parameters following changes induced by gemcitabine administration in the rat were evaluated. The vehicle was prepared using 7.11% Tween 80 (v/v): 25.5% Propylene glycol (v/v): 67.4% D5W (v/v). D5W is 5% dextrose in water for injection.
Plinabulin or Pegfilgrastim were first dissolved in the Tween 80-PG mixture and then diluted with D5W. Test item was dissolved in Tween 80-PG mixture on the day before and stored at RF. D5W was added on the day of dosing to complete the formulation.
Animals were randomized based on body weight and/or absolute neutrophil counts and assigned to groups. Before the initiation of dosing, any assigned animals considered unsuitable for use in the study were replaced by alternate animals obtained from the same shipment and maintained under the same environmental conditions. Each animal was uniquely identified using indelible ink. A minimum acclimation period of 5 days was allowed between animal receipt and the start of treatment in order to accustom the animals to the laboratory environment.
For the lab evaluation, the animal blood was collected by jugular venipuncture. Samples (0.3 mL) were collected in EDTA tubes. Additional blood samples may be obtained (e.g., due to clotting of non-serum samples) if permissible sampling frequency and blood volume are not exceeded. After collection, samples were transferred to Clinical Laboratories for hematology analysis using the Advia and results entered into the Provantis® system.
Administration of Inducing Agent
1. Gemcitabine; Groups 1, 3 and 4
Dosing regimen: Single dosing on Day 1
Intravenously (IV bolus) over ˜1 minute at a dose volume of 5 mL/kg.
Group 2 received Vehicle.
2. Pegfilgrastim; Groups 2 and 4
Dosing regimen: Single dosing on Day 2, 24 hours after Gemcitabine
Route of administration: Subcutaneous (SC) injection.
Dose volume: 10 mL/kg, based on the most recent body weight measurement
Dosing regimen: Single dosing on Day 1, 1 hr after Gemcitabine
Route of administration: Intra-peritoneal (IP) injection.
Group 1 received Vehicle.
The dosing time points for groups 1 to 4 include days −3, 1, 2, 3, 4, 5, 6, 7, 8, 9 and 10. Additional blood samples may be obtained (e.g., due to clotting of non-serum samples) if permissible sampling frequency and blood volume are not exceeded. After collection, samples will be transferred to Clinical Laboratories for hematology analysis using the Advia and results entered into the Provantis® system.

Molecule | percentage of patients with greater than 30% platelet decrease from baseline, compared with pegfilgrastim group ([1]; cycles 1-4, plinabulin groups, FIG. 3) | change of platelet count (percent) from day 1 to day 15 [1] | development of thrombocytopenia (percentage of patients at each grade) [1] | incidence of developing thrombocytopenia (percentage of patients at each grade) ([1]; plinabulin 5, 10 and 20 mg/m^2 vs pegfilgrastim 6 mg, FIG. 4) | platelet counts versus gemcitabine alone group ([2]; Days 8 and 9, gemcitabine and plinabulin group) | effect on thrombocytopenia observed with gemcitabine alone ([2]; gemcitabine 100 mg/kg IV + plinabulin 7.5 mg/kg IP, FIG. 1) | platelet counts ([2]; gemcitabine 100 mg/kg IV Day 1 + plinabulin 7.5 mg/kg IP 1 hr after, all sampling days, FIG. 1) | recovery from gemcitabine-induced thrombocytopenia versus gemcitabine alone ([2]; gemcitabine and plinabulin group) | percentage of patients with greater than 30% platelet decrease from baseline ([1]; cycles 1-4, FIG. 3) [%]
CC(C)(C)c1[nH]cnc1/C=c1\[nH]c(=O)/c(=C/c2ccccc2)[nH]c1=O [plinabulin, Plinabulin] | lower percentages | more effective in maintaining the platelet count | did not develop thrombocytopenia | lower incidences of developing thrombocytopenia than the pegfilgrastim group | statistically greater | reduced the thrombocytopenia observed with gemcitabine alone | > 500 ×10^3 cells/μL | more rapid | –
B1 | – | greater than the plinabulin group | some patients in the pegfilgrastim group developed thrombocytopenia | – | – | – | – | – | ~85

Reference: patent US11786523B2, “Composition and method for reducing thrombocytopenia” (BEYONDSPRING PHARMACEUTICALS, INC., priority 2018, dated 2023)
